Test results from patent publication US10329243B2, “Biphenyl derivative and uses thereof” (XI'AN LIBANG PHARMACEUTICAL CO., LTD, priority 2015, dated 2019).

Columns and labels:
Format in all cases: in vivo, SD rats
SOD [1] = assay: SOD determination, permanent cerebral ischemia model; settings: permanent cerebral ischemia model rats; 40 mg/kg intravenously; serum, 24 h after the embolism
Experimental: (§1) Rats were intraperitoneally injected with 10% chloral hydrate 350 mg/kg after anesthesia and opened up at the center of the neck in accordance with the Zea Longa modified method. The right common carotid artery was separated, and the right external carotid artery branches was ligated. A small opening was made at the distal end of the external carotid artery, and a previously prepared thread was inserted through the common carotid artery and the external carotid artery bifurcation into the internal carotid artery, till the anterior end of the middle cerebral artery, with an immersed depth of 18 to 19 mm. The thread was then secured, and the wound was sutured layer by layer. After the operation, the rats were placed in a clean incubator to wake up. […] The sham operation group, the permanent cerebral ischemia model group, and the Example groups were prepared strictly according to the requirements of the cerebral ischemic reperfusion model, while in the sham operation group the thread was put only into the external carotid artery. The animals were allowed to eat and drink freely after waking up. The sham operation group, the permanent cerebral ischemia model group, and the Example groups were administered intravenously the aqueous solution of the biphenyl derivatives in PEG400 at 40 mg/kg (40 mg/kg means that 40 mg of the test compound per kg of the body weight of rats) 30 min before insertion of thread and 12 h after embolism, respectively. The sham operation group and the permanent cerebral ischemia model group were injected with the same amount of blank PEG400 aqueous solution at the same time point.
(§2) 24 hours after the embolism, 8 rats in each group were sacrificed by decapitation, the brain was removed, rinsed with PBS (pH 7.4) at −20°i for 20 min, evenly sliced (with a thickness of 2 mm), stained in a 2% TTC solution at 37°% in the dark for 30 min, fixed in 10% formalin for 24 h, and photographs were taken to analyze the infarct volume. A mixture of femoral arterial and venous blood was drawn from another 8 rats in each group under anesthesia, placed in a low temperature centrifuge at 4° C., centrifuged at 3500 r/min for 20 min, and the supernatant was stored in a refrigerator at −20° C. ready for SOD and MDA detection. After the blood was drawn, a perfusion needle was insert through the apex to the ascending aorta, and saline at 4° C. was rapid infused until the effluent became clear, followed by 4% paraformaldehyde phosphate buffer perfusion for fixation; the brain was removed by craniotomy, and brain tissues 2 mm in front of and behind the optic chiasma were taken and fixed, dehydrated, rendered transparent, impregnated in wax, and embedded. Brain continuous coronary tissue pathological sections were consecutively cut for later use. The remaining 8 rats in each group were sacrificed, brains were removed, the ischemic brain hemispheres were immediately taken on an ice tray, and 10% brain tissue homogenate was prepared for the detection of IL-1β and TNF-α.
(§3) SOD and MDA were determined strictly in accordance with instructions of the kit.

SOD [2] = assay: SOD determination, cerebral ischemic reperfusion MCAO model; settings: ischemic reperfusion MCAO rats; 40 mg/kg intravenously 30 min before and 12 h after reperfusion; serum, 24 h after reperfusion
Experimental: as §1, with “group, the ischemic reperfusion group, and” for “group, the permanent cerebral ischemia model group, and”, “waking up. After 2 h, the thread was pulled out to achieve reperfusion. The sham” for “waking up. The sham”, “min before reperfusion and 12” for “min before insertion of thread and 12”, “h after reperfusion, respectively. The” for “h after embolism, respectively. The”, “and the ischemic reperfusion group were” for “and the permanent cerebral ischemia model group were”
as §2, with “reperfusion,” for “the embolism,”, “−20° i” for “−20°i”
as §3

IL-1β [3] = assay: Determination of IL-1β in brain tissue homogenate, cerebral ischemic reperfusion MCAO model; settings: ischemic reperfusion MCAO rats; 40 mg/kg intravenously; 10% brain tissue homogenate, 24 h after reperfusion
Experimental: as §1, with “group, the ischemic reperfusion group, and” for “group, the permanent cerebral ischemia model group, and”, “waking up. After 2 h, the thread was pulled out to achieve reperfusion. The sham” for “waking up. The sham”, “min before reperfusion and 12” for “min before insertion of thread and 12”, “h after reperfusion, respectively. The” for “h after embolism, respectively. The”, “and the ischemic reperfusion group were” for “and the permanent cerebral ischemia model group were”
as §2, with “reperfusion,” for “the embolism,”, “−20° i” for “−20°i”
(§4) Brain tissue homogenate was hypothermally centrifuged at 3000 rpm for 15 min, the supernatant was taken, and IL-1β and TNF-α were determined in strict accordance with instructions of the kits.

IL-1β [4] = assay: Determination of IL-1β in brain tissue homogenate, permanent cerebral ischemia model; settings: permanent cerebral ischemia model rats; 40 mg/kg intravenously; 10% brain tissue homogenate, 24 h after the embolism
Experimental: as §1, §2, §4

[5] = test system: rats with cerebral ischemic reperfusion injury; assay: Relative infarct volume (TTC, imageJ), cerebral ischemic reperfusion MCAO model; settings: ischemic reperfusion MCAO rats; 40 mg/kg intravenously 30 min before and 12 h after reperfusion; 24 h after reperfusion
Experimental: as §1, with “group, the ischemic reperfusion group, and” for “group, the permanent cerebral ischemia model group, and”, “waking up. After 2 h, the thread was pulled out to achieve reperfusion. The sham” for “waking up. The sham”, “min before reperfusion and 12” for “min before insertion of thread and 12”, “h after reperfusion, respectively. The” for “h after embolism, respectively. The”, “and the ischemic reperfusion group were” for “and the permanent cerebral ischemia model group were”
as §2, with “reperfusion,” for “the embolism,”, “−20° i” for “−20°i”
The infarct area in each brain section was analyzed and quantified by the imageJ image software, and the ratio of cerebral infarction volume in the overall brain volume was calculated.

TNF-α [6] = assay: Determination of TNF-α in brain tissue homogenate, cerebral ischemic reperfusion MCAO model; settings: ischemic reperfusion MCAO rats; 40 mg/kg intravenously; 10% brain tissue homogenate, 24 h after reperfusion
Experimental: as §1, with “group, the ischemic reperfusion group, and” for “group, the permanent cerebral ischemia model group, and”, “waking up. After 2 h, the thread was pulled out to achieve reperfusion. The sham” for “waking up. The sham”, “min before reperfusion and 12” for “min before insertion of thread and 12”, “h after reperfusion, respectively. The” for “h after embolism, respectively. The”, “and the ischemic reperfusion group were” for “and the permanent cerebral ischemia model group were”
as §2, with “reperfusion,” for “the embolism,”, “−20° i” for “−20°i”
as §4

TNF-α [7] = assay: Determination of TNF-α in brain tissue homogenate, permanent cerebral ischemia model; settings: permanent cerebral ischemia model rats; 40 mg/kg intravenously; 10% brain tissue homogenate, 24 h after the embolism
Experimental: as §1, §2, §4

## CC(=O)Oc1c(C(C)C)cc(-c2cc(C(C)C)c(OC(C)=O)c(C(C)C)c2)cc1C(C)C [Example 2 group, 3,3′,5,5′-tetraisopropylbiphenyl-4′-diacetate]
SOD [1]
  SOD ACTIVITY (U/mL): 93.28 ± 3.49 U/mL
SOD [2]
  SOD ACTIVITY (U/mL): 94.46 ± 2.19 U/mL
IL-1β [3]
  IL-1β content: 0.79 ± 0.11 ng/mL
IL-1β [4]
  IL-1β content: 0.78 ± 0.12 ng/mL
[5]
  Relative Brain infarction volume (%): 23.22 ± 3.12 %
TNF-α [6]
  TNF-α content: 5.03 ± 0.59 ng/mL
TNF-α [7]
  TNF-α content: 5.15 ± 0.88 ng/mL
